From patent US8445509B2, “Fused heterocyclic derivatives and use thereof” (Takeda Pharmaceutical Company Limited, priority 2008, dated 2013)

Assays:
[1] = system: Human blood cell cancer cell line MV-4-11; assay: Human blood cell cancer cell line MV-4-11 growth inhibitory test; assay type: cell-based; conditions: MV4-11, 72 h, culture for 3 days
Procedure: Human blood cell cancer cell line MV-4-11 (ATCC) was cultured in IMDM (Invitrogen) containing 10% bovine fetal serum in an incubator at 37° C., 5% CO2. MV-4-11 cells were treated with trypsin/EDTA and recovered. The cells were suspended in IMDM containing 10% bovine fetal serum, plated on a 96 well flat bottom plate at a cells density of 30,000 cells/50 μL per well. After culturing overnight, various concentrations of test substance were dissolved in IMDM containing 10% bovine fetal serum and added to each well by 50 μL. After culture for 3 days, a Cell counting kit-8 reagent (DOJINDO LABORATORIES) was added to each well by 10 μL, and reacted in an incubator at 37° C., 5% CO2 for 2-3 hr. After the reaction, the absorbance of each well at 450 nm was measured by a microtiter plate reader. The concentration of a test substance necessary for inhibiting the growth by 50% (IC50 value) was calculated using a cell proliferation rate with addition of the test substance at each concentration and according to the nonlinear regression analysis using GraphPad Prism [Sigmoidal dose response (variable slope)].

[2] = molecular target: T1, VEGFR2 intracellular domain protein (Homo sapiens, UniProt P35968); assay: Vascular endothelial growth factor receptor 2 (VEGFR2) kinase inhibitory activity (AlphaScreen); assay type: biochemical
T1 construct: made in house; host or cells: SF-21 insect cells, recombinant baculovirus BAC-VEGFR2
T1 sequence (P35968 786-1356 limits assumed): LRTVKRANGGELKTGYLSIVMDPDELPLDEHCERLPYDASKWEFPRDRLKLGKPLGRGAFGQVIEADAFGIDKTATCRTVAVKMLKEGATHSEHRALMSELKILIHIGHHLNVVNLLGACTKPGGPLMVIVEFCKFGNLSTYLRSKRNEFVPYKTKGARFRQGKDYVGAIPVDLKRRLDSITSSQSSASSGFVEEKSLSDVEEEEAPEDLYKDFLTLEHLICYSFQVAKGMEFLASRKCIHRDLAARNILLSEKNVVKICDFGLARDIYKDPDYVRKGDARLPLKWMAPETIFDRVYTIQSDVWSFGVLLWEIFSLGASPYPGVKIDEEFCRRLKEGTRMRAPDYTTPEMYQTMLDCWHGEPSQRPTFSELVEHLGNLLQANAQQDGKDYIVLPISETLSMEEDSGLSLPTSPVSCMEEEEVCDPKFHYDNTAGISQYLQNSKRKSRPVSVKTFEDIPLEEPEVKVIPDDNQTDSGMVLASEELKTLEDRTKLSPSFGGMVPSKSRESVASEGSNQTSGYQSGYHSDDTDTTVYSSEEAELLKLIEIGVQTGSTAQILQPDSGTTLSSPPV
Procedure: Human vascular endothelial growth factor receptor 2 (hereinafter to be referred to as VEGFR2) gene was cloned by PCR using cDNA Libraries Human Placenta (Clontech) as a template. […] The primer base sequence is shown below.
SF-21 cells were sown at 1×10^6 cells/mL to Sf-900II SFM medium (1 L, Invitrogen) containing 10% fetal bovine serum (trace), 50 mg/L Gentamicin (Invitrogen) and 0.1% Pluronic F-68 (Invitrogen), and shaking culture was performed using a 2 L volume Erlenmeyer flask at 27° C., 100 rpm. After culturing for 24 hrs, recombinant baculovirus BAC-VEGFR2 (13.4 mL) was added to the mixture, and the mixture was further cultured for 3 days. The culture medium was centrifuged at 2,000 rpm for 5 min to give virus-infected cells. The infected cells were washed with a phosphate buffered saline (Invitrogen), centrifuged under the same conditions, and the cells were preserved at −80° C. The cryopreserved cells were thawed in ice, suspended in buffer A (50 mM Tris buffer (30 mL, pH 7.4) containing 20% glycerol, 0.15 M NaCl) supplemented with Complete Protease Inhibitor (Boehringer), and ruptured 3 times with a Polytron homogenizer (Kinematica) at 20,000 rpm for 30 sec. The ruptured medium was clarified by centrifugation at 40,000 rpm for 30 min and filtered with a 0.45 μm filter. The filtrate was passed through a column packed with Anti-FLAG M2 Affinity Gel (4 mL, Sigma) at a flow rate of about 0.5 mL/min. The column was washed with buffer A, and eluted with buffer A containing 100 μg/mL of FLAG peptide. The eluate was concentrated with Vivaspin 20 (Vivascience) having a molecular weight cut off of 30K. The buffer of this concentrate was exchanged using NAP™ 25 column (Amersham Bioscience) equilibrated with buffer A. The fractions containing intracellular domain protein of VEGFR2 were collected, glycerol was added to the final concentration of 50% and cryopreserved at −80° C.
(§1) A test compound dissolved in dimethyl sulfoxide (DMSO) was diluted with a buffer (50 mM Tris-HCl (pH 7.5), 5 mM MgCl2, 5 mM MnCl2, 2 mM dithiothreitol, 0.01% Tween-20). To this compound solution (5 μL) was added a buffer (10 μL) containing 50 ng/mL of VEGFR2 intracellular domain protein and 250 ng/mL of biotin labeled polypeptide biotinyl-poly-Glu:Tyr (4:1) (CIS bio International). […] The reaction solution was allowed to stand at 25° C. for 16 hrs, and the wells were counted using a plate reader (Fusion™ (PerkinElmer)). The kinase inhibitory rate (%) of the test compound was calculated by the following formula: Inhibitory rate (%)=(1−(count of test compound−blank)÷(control−blank))×100
(§2) The count of the solution reacted without addition of the compound was used as a “control”, and the count of the solution without the compound and ATP was used as a “blank”.

[3] = system: Human umbilical vein-derived vascular endothelial cells (HUVEC); assay: Vascular endothelial cell proliferation inhibitory test (VEGF-stimulated HUVEC); assay type: cell-based; conditions: 120 h, 5 days of culture with VEGF
Procedure: Human umbilical vein-derived vascular endothelial cells (HUVEC purchased from KURABO […] LTD.) were cultured in an incubator at 37° C., 5% carbon dioxide in a vascular endothelial cell medium (Invitrogen) containing 3% bovine fetal serum and 2.5 ng/mL basic fibroblast growth factor. To be specific, HUVEC was suspended in a vascular endothelial cell medium containing the aforementioned 3% bovine fetal serum and plated on a 96 well flat bottom plate by 50 μL (3000 cells) each well. After culture overnight, various concentrations of the test substance and 120 ng/mL of vascular endothelial growth factor (VEGF) were dissolved in a vascular endothelial cell medium containing 3% bovine fetal serum and added to each well by 50 μL. After 5 days of culture, a Cell counting kit-8 reagent (DOJINDO LABORATORIES) was added to each well by 10 μL, and the mixture was reacted in an incubator at 37° C., 5% carbon dioxide for 2-3 hr. The absorbance at 450 nm was measured by a microtiter plate reader and the cell proliferation inhibitory activity was determined. Using the absorbance with addition of a test substance at each concentration and based on the nonlinear least-squares analysis using a logistic curve of SAS system NLIN procedure, the concentration of the test substance (IC50 value) necessary for showing 50% of the value obtained without addition of the test substance was calculated.

[4] = system: Human gastric cancer cell line MKN-45; assay: Human gastric cancer cell line MKN-45 growth inhibitory test; assay type: cell-based; conditions: MKN-45, 72 h, culture for 3 days
Procedure: Human gastric cancer cell line MKN-45 (RIKEN BioResource Center) was cultured in RPMI1640 (Invitrogen) containing 10% bovine fetal serum in a gas incubator at 37° C., 5% CO2. MKN-45 cells were treated with trypsin/EDTA and recovered. The cells were suspended in RPMI1640 containing 0.3% bovine fetal serum, plated on a 96 well flat bottom plate at a cells density of 3000 cells/50 μL per well. After culturing overnight, various concentrations of test substance were dissolved in RPMI1640 containing 0.3% bovine fetal serum and added to each well by 50 μL. After culture for 3 days, a Cell counting kit-8 reagent (DOJINDO LABORATORIES) was added to each well by 10 μL, and reacted in an incubator at 37° C., 5% CO2 for 2-3 hr. After the reaction, the absorbance of each well at 450 nm was measured by a microtiter plate reader. The concentration of a test substance necessary for inhibiting the growth by 50% (IC50 value) was calculated using a cell proliferation rate with addition of the test substance at each concentration and according to the nonlinear regression analysis using GraphPad Prism [Sigmoidal dose response (variable slope)]. The cell proliferation rate (%) with addition of a test substance at each concentration was calculated by the following formula. As a positive control (100% growth), dimethyl sulfoxide was added instead of a test substance. As a negative control (0% growth), the compound of Reference Example 136 (WO2005/030140, Entry 104), which is a known c-Met inhibitor, was added in large excess (10 μM) instead of a test substance.

[5] = molecular target: T2, c-Met intracellular domain protein (Homo sapiens, UniProt P08581); assay: Hepatocyte growth factor receptor (c-Met) kinase inhibitory activity (AlphaScreen); assay type: biochemical
T2 construct: 2.5 ng/ml of c-Met intracellular domain protein (Millipore); purchased Millipore
T2 sequence (P08581 956-1390 limits assumed): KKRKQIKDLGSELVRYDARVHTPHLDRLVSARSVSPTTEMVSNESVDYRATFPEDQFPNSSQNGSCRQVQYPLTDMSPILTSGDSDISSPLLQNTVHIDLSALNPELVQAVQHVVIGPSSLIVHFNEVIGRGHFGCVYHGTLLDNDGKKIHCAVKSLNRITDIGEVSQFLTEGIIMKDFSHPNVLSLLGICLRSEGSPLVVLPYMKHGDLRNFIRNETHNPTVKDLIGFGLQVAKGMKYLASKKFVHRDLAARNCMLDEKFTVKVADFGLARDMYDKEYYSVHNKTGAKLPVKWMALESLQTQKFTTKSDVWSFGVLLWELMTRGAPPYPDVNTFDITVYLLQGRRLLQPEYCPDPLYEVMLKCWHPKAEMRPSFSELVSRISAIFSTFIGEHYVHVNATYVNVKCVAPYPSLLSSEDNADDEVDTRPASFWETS
Procedure: as §1, with “containing 2.5 ng/ml” for “containing 50 ng/mL”, “of c-Met” for “of VEGFR2”, “protein (Millipore)” for “protein”
as §2

[6] = molecular target: T3, FLT3 intracellular domain protein (Homo sapiens, UniProt P36888); assay: Fms Like Tyrosine Kinase 3 (FLT3) kinase inhibitory activity (AlphaScreen); assay type: biochemical
T3 construct: 7.5 ng/ml of FLT3 intracellular domain protein (Millipore); purchased Millipore
T3 sequence (P36888 564-993 limits assumed): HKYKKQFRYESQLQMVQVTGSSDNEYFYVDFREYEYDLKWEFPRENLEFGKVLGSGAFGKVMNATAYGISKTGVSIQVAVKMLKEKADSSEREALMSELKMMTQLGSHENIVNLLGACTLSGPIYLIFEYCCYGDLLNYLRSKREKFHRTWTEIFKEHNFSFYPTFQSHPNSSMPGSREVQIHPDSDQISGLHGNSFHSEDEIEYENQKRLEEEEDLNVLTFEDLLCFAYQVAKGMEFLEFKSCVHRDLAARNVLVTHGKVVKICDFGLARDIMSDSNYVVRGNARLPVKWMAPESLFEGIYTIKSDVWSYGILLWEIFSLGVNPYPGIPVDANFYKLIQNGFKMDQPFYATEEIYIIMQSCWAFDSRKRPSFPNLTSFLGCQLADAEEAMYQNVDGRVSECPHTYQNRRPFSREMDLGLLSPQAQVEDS
Procedure: A test compound dissolved in dimethyl sulfoxide (DMSO) was diluted with a buffer (50 mM Tris-HCl (pH 7.5), 5 mM MgCl2, 5 mM MnCl2, 2 mM dithiothreitol, 0.01% Tween-20). To this compound solution (5 μL) was added a buffer (10 μL) containing 7.5 ng/ml of FLT3 intracellular domain protein (Millipore) and 250 ng/mL of biotin labeled polypeptide biotinyl-poly-Glu:Tyr (4:1) (CIS bio International). At 5 min after mixing kinase enzyme and the compound and biotin labeled polypeptide, to the obtained mixture was added a buffer (10 μL) containing ATP (5 μM), the mixture was allowed to react at 25° C. for 10 min and the reaction was quenched with 25 μL of a stop solution (100 mM EDTA disodium salt, 62.5 mM HEPES buffer (pH 7.4), 250 mM NaCl, 0.1% bovine serum albumin, 10 μg/mL AlphaScreen assay streptavidin donor beads (Streptavidin Donor Beads: PerkinElmer), 10 μg/mL AlphaScreen assay anti-phosphotyrosine recognition antibody Y-100 binding acceptor beads (Anti-phosphotyrosine (P-Tyr-100) Acceptor beads: PerkinElmer)). The reaction solution was allowed to stand at 25° C. for 16 hrs, and the wells were counted using a plate reader (Envision™ (PerkinElmer)). The kinase inhibitory rate (%) of the test compound was calculated by the following formula: Inhibitory rate (%)=(1−(count of test compound−blank)÷(control−blank))×100
as §2

[7] = molecular target: T4, Tie2 intracellular domain protein (Homo sapiens, UniProt Q02763); assay: TIE2 kinase inhibitory activity (AlphaScreen); assay type: biochemical
T4 construct: 50 ng/mL of Tie2 intracellular domain protein (Millipore); purchased Millipore
T4 sequence (Q02763 770-1124 limits assumed): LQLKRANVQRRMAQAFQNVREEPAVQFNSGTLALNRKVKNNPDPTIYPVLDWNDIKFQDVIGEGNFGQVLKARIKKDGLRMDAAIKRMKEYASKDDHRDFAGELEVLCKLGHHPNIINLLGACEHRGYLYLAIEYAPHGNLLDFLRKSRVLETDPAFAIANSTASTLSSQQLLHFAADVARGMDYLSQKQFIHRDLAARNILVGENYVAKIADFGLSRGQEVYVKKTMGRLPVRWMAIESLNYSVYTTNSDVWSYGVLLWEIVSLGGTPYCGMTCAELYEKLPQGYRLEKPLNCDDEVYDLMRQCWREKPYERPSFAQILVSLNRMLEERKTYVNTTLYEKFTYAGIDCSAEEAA
Procedure: A test compound dissolved in dimethyl sulfoxide (DMSO) was diluted with a buffer (50 mM Tris-HCl (pH 7.5), 5 mM MgCl2, 5 mM MnCl2, 2 mM dithiothreitol, 0.01% Tween-20). A buffer (10 μL) containing 50 ng/mL of Tie2 intracellular domain protein (Millipore) and 250 ng/ml, of biotin labeled polypeptide biotinyl-poly-Glu:Tyr (4:1) (CIS bio International) was added to the compound solution (5 μL). At 5 min from the mixing of the kinase enzyme, the compound and the biotin labeled polypeptide, a buffer (10 μL) containing 5 μM ATP was added, and the mixture was reacted at 25° C. for 10 min. The reaction was quenched by the addition of 25 μL of a stop solution (100 mM EDTA disodium salt, 62.5 mM HEPES buffer (pH 7.4), 250 mM NaCl, 0.1% bovine serum albumin, 10 μg/ml AlphaScreen assay streptavidin donor beads (Streptavidin Donor beads: PerkinElmer), 10 μg/ml, AlphaScreen assay anti-phosphotyrosine recognition antibody PT-66 binding acceptor beads (Anti-phosphotyrosine (PT-66) Acceptor beads: PerkinElmer)). The reaction solution was allowed to stand at 25° C. for 16 hrs, and the […] were counted using a plate reader (Fusion™ (PerkinElmer)). The kinase inhibitory rate (%) of the test compound was calculated by the following formula: Inhibitory rate (%)=(1−(count of test compound−blank)÷(control−blank))×100
as §2

[8] = 1 μM test substance, read-out: inhibitory rate (%) at 1 μM
[9] = 1 μM test compound, read-out: inhibitory rate (%) at 1 μM

| IC50 [1] [nM] | IC50 [2] [nM] | inhibition at 1 µM [2, 9] [%] | IC50 ([4]; read-out: IC50 value) [nM] | IC50 [5] [nM] | inhibition at 1 µM [5, 9] [%] | IC50 [6] [nM] | IC50 [7] [nM] | Compound | inhibition at 1 µM [1, 8] [%] | inhibition at 1 µM [3, 8] [%] | IC50 [3] [nM] | inhibition at 1 µM [4, 8] [%] |
| --- | --- | --- | --- | --- | --- | --- | --- | --- | --- | --- | --- | --- |
| ≤ 1000 | ≤ 1000 | ≥ 70 | ≤ 1000 | ≤ 1000 | ≥ 80 | – | – | O=C(Nc1nc2ccc(Oc3ccc(NC(=O)C4(C(=O)Nc5ccccc5)CC4)cc3F)nc2s1)C1CC1 [Example 20, N-[4-({2-[(cyclopropylcarbonyl)amino][1,3]thiazolo[5,4-b]pyridin-5-yl}oxy)-3-fluorophenyl]-N′-phenylcyclopropane-1,1-dicarboxamide] | ≥ 90 | ≥ 40 | ≤ 2000 | ≥ 80 |
| – | – | – | – | – | – | ≤ 1000 | ≤ 1000 | Cc1ccc(C(=O)Nc2ccc(Oc3ccc4nc(NC(=O)C5CC5)cn4c3)c(F)c2)c(=O)n1-c1ccc(F)cc1 [Example 90, N-[4-({2-[(cyclopropylcarbonyl)amino]imidazo[1,2-a]pyridin-6-yl}oxy)-3-fluorophenyl]-1-(4-fluorophenyl)-6-methyl-2-oxo-1,2-dihydropyridine-3-carboxamide acetate] | – | – | – | – |
